{
  "source": "patent US20010041737A1",
  "about": "“Enhancing the toxicity of warfarin in rodents” (priority 1998, published 2001)",
  "system": "warfarin-resistant Norway rats from Chicago, Illinois",
  "experiment": "Example II: feeding test of 50 ppm warfarin bait with or without antibiotic",
  "type": "in vivo",
  "settings": "conclusion in words from the Example II mortality figures",
  "note": "Structures can show the parent of a compound that is named as a salt.",
  "data": [
    {"smiles": "CN(C)[C@@H]1C(O)=C(C(N)=O)C(=O)[C@@]2(O)C(O)=C3C(=O)c4c(O)cccc4[C@@](C)(O)[C@H]3C[C@@H]12", "note": "[tetracycline hydrochloride]", "values": [
      {"measurement": "Effect of the antibiotic on the toxicity of warfarin", "value": "appears to enhance the toxicity of warfarin"}
    ]}
  ]
}
